How the values were obtained:
SARS-CoV-2 Mpro = SARS-CoV-2 Mpro (Severe acute respiratory syndrome coronavirus 2, UniProt P0DTC1); experiment: biochemical; format: biochemical
[1] = system: SARS-CoV-2 (USA-WA1/2020 variant); experiment: Cytopathic effect (CPE) live virus cell viability assay in Vero-E6 cells; format: cell-based; settings: for EC50: Severe acute respiratory syndrome coronavirus 2, Vero C1008, 96 h, read-out: EC50 viral CPE assay

| SMILES | IC50 (SARS-CoV-2 Mpro) [nM] | EC50 [1] [µM] | also measured |
| --- | --- | --- | --- |
| O=C(CN1C(=O)[C@@H](NC(=O)c2ccc3ccccc3n2)COc2ccccc21)N[C@@H](C[C@@H]1CCNC1=O)C(=O)COC(=O)c1c(Cl)cccc1Cl [Compound 20] | 580 ± 40 | 44.5 ± 7.4 |  |
| CCC(CC)COC(=O)[C@H](C)N[P@](=O)(OC[C@H]1O[C@@](C#N)(c2ccc3c(N)ncnn23)[C@H](O)[C@@H]1O)Oc1ccccc1 [Remdesivir, reference compound] |  | 2.7 ± 0.5 | inhibition at 1 µM ([1]; Severe acute respiratory syndrome coronavirus 2, Vero C1008, single treatment, 1 µM of remdesivir, 96 h, three independent experiments, read-out: inhibition of CPE in infected cells): 3.6 ± 3.1% |
| COc1cccc2[nH]c(C(=O)N[C@@H](CC(C)C)C(=O)N[C@@H](C[C@@H]3CCNC3=O)C(=O)COC(=O)c3c(Cl)cccc3Cl)cc12 [Compound 18, reference compound] | 11 ± 0.7 | 3.4 ± 1.4 |  |
| CC(C)C[C@H](NC(=O)OCc1ccccc1)C(=O)N[C@@H](C[C@@H]1CCNC1=O)C(O)S(=O)(=O)O (some centres unmarked) [GC-376, reference compound] | 18 ± 1.5 | 1.8 ± 0.4 | time to achieve maximum inhibition (SARS-CoV-2 Mpro; Mpro enzymatic assay): ≤ 10 min |
| O=C(CN1C(=O)C(NC(=O)OCc2ccccc2)COc2ccccc21)NC(CC1CCNC1=O)C(=O)COC(=O)c1c(Cl)cccc1Cl (centres unmarked) [Compound 1] | 230 ± 18 | 7.5 ± 2 | fold less potent (Mpro) than compound 18 (SARS-CoV-2 Mpro; ratio of Mpro IC50 versus Pfizer lead compound 18): ~ 20 fold; fold reduced in activity compared to 18 [1]: 2.2 fold; fold reduced in activity compared to GC-376 [1]: 4.1 fold; inhibition at 5 µM ([1]; Severe acute respiratory syndrome coronavirus 2, Vero C1008, single treatment, 5 µM of 1, 96 h, three independent experiments, read-out: inhibition of CPE in infected cells): 19.5 ± 13.7% |
| O=C(CN1C(=O)[C@@H](NC(=O)c2ccccc2)COc2ccccc21)N[C@@H](C[C@@H]1CCNC1=O)C(=O)COC(=O)c1c(Cl)cccc1Cl [Compound 19] | 620 ± 48 | 25 ± 5 |  |
| O=C(CN1C(=O)[C@@H](NC(=O)OCc2ccccc2)COc2ccccc21)N[C@@H](C[C@@H]1CCNC1=O)C(=O)COc1cc(C(F)(F)F)nn1-c1ccc(F)cc1 [Compound 21] | 3100 | 73.5 ± 12.4 | fold less Mpro activity compared to 1 (SARS-CoV-2 Mpro; ratio of Mpro IC50 versus compound 1): more than 10 fold |
